The values that follow come from publication PMC8620242 (Journal of Advanced Research, 2021).

pIC50, pKd: −log10 of the molar value.

The subject of one data set is Vero E6 cells. In kind it is cell-based. As to conditions: CCK-8.
The target of the next data set is SARS-CoV-2 spike protein (Severe acute respiratory syndrome coronavirus 2, UniProt P0DTC2). The data set can be described thus: biochemical. In kind it is binding.
The conditions of data set [1]: male, Sprague-Dawley, rat, in vivo.
The target of data set [2] is RBD of SARS-CoV-2 spike protein (Severe acute respiratory syndrome coronavirus 2, UniProt P0DTC2). The data set can be described thus: biochemical. It is filed as binding.
The next data set relates to SARS-CoV-2 pseudovirus. In kind it is cell-based.
A short description of data set [3]: in vivo. The arrangement: species or system rats. The settings on record: male, Sprague-Dawley, rat, po, 40 mg/kg.
A further data set addresses nsp8 (Severe acute respiratory syndrome coronavirus 2, UniProt P0DTD1). Nature of the data set: biochemical. It is filed as binding, SARS-CoV-2.
A short description of data set [4]: in vivo. The settings on record: male, Sprague-Dawley, rat, po, 40 mg/kg.
Another data set deals with nsp7 (Severe acute respiratory syndrome coronavirus 2, UniProt P0DTD1). The data set can be described thus: biochemical. It is filed as binding, SARS-CoV-2.
For another data set, the target named is ACE2. The settings on record: read-out: KD for binding to ACE2; cited from earlier work.

In the case of `C=C(C)[C@@H]1CC[C@]2(C(=O)O)CC[C@]3(C)[C@H](CC[C@@H]4[C@@]5(C)CC[C@H](O)C(C)(C)[C@@H]5CC[C@]43C)[C@@H]12` [betulinic acid], the cytotoxicity result in the data set on Vero E6 cells is “remarkable cytotoxicity”. Further, the pIC50 (usually −log10 of the IC50, conventionally taken in molar units) at SARS-CoV-2 spike protein is 4.82.

In the case of `C[C@H]1[C@H](C)CC[C@]2(C(=O)O)CC[C@]3(C)C(=CC[C@@H]4[C@@]5(C)CC[C@H](O)C(C)(C)[C@@H]5CC[C@]43C)[C@H]12` [ursolic acid], the cytotoxicity result with Vero E6 cells is recorded as “remarkable cytotoxicity”. Further, the pIC50 at SARS-CoV-2 spike protein is 5.05.

`CC1(C)[C@@H](O[C@H]2O[C@H](C(=O)O)[C@@H](O)[C@H](O)[C@H]2O[C@@H]2O[C@H](C(=O)O)[C@@H](O)[C@H](O)[C@H]2O)CC[C@]2(C)[C@H]3C(=O)C=C4[C@@H]5C[C@@](C)(C(=O)O)CC[C@]5(C)CC[C@@]4(C)[C@]3(C)CC[C@@H]12` [GA-gg, glycyrrhizic acid] gave a maximum plasma concentration in data set [1] of 10.23 µM. The “binding to RBD” value in [2] (SPR) is “very weak bindings”. Besides, the “activity in the pseudovirus system” value in the data set on SARS-CoV-2 pseudovirus is given as “weak activities”.

Turning to `CC1(C)[C@@H](O)CC[C@]2(C)[C@H]3C(=O)C=C4[C@@H]5C[C@@](C)(C(=O)O)CC[C@]5(C)CC[C@@]4(C)[C@]3(C)CC[C@@H]12` [GA, glycyrrhetinic acid], the Tmax – broadly, the time from dosing to the highest level – in “in vivo [3]” was 2 h. Besides, the half-life (usually the time needed for the level to fall by half in the phase considered) in “in vivo [3]” is 18.2 h; in “in vivo [4]”, 9.91 h. Moreover, the maximum plasma concentration in data set [1] was 5.68 µM. The pKd (commonly the negative decadic logarithm of the Kd, by convention in mol/L) is 5.63 in data set [2], 4.04 at nsp8 and 3.42 at nsp7. This molecule also showed a pIC50 against SARS-CoV-2 spike protein of 4.96. In addition, the inhibition (commonly the change of the read-out against control, counted positive when it falls) at 10 µM at SARS-CoV-2 spike protein (read-out: inhibition rate against SARS-CoV-2 spike protein by ELISA) worked out at 51.9%. Besides, in the data set on SARS-CoV-2 pseudovirus, the “inhibitory activity in blocking, attachment and entry procedures” value is reported as “significant inhibitory activities”.

In the case of dalbavacin, the pKd on ACE2 was 6.83.
